In ChEMBL document CHEMBL1201862, “PubChem BioAssay data set” (2004):
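Results reflect a 48-hour exposure of cells in 96-well plates to compound at five concentrations. GI50 marks 50% less growth.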 Active and inactive are the calls of the source. Rule as the data show it: active = GI50 up to about 1.1 µM and inactive = higher.

What was measured:
Assay in all cases: NCI anticancer screen, dose series, 48 h
CCRF-CEM = tested on: CCRF-CEM
NCI/ADR-RES = tested on: NCI/ADR-RES
SF-295 = tested on: SF-295
DMS-114 = tested on: DMS-114
RXF 393 = tested on: RXF 393
K562 = tested on: K562
COLO 205 = tested on: COLO 205
UO-31 = tested on: UO-31
MOLT-4 = tested on: MOLT-4
DMS-273 = tested on: DMS-273
SF-539 = tested on: SF-539
SN12C = tested on: SN12C
OVCAR-8 = tested on: OVCAR-8
NCI-H522 = tested on: NCI-H522
HOP-62 = tested on: HOP-62
HCT-116 = tested on: HCT-116
SK-MEL-28 = tested on: SK-MEL-28
IGROV-1 = tested on: IGROV-1
RPMI-8226 = tested on: RPMI-8226
HT-29 = tested on: HT-29

Measured: GI50

COc1cc(C2C3=C(COC3=O)Oc3cc4c(cc32)OCO4)cc(OC)c1OC (centres undefined)
active: CCRF-CEM 0.0314 µM | NCI/ADR-RES 0.0185 µM | SF-295 0.0109 µM | DMS-114 0.00962 µM | RXF 393 0.0106 µM | K562 0.0108 µM | COLO 205 0.0333 µM | UO-31 0.139 µM | MOLT-4 0.024 µM | DMS-273 0.01 µM | SF-539 0.0218 µM | SN12C 0.0515 µM | OVCAR-8 0.0335 µM | NCI-H522 0.001 µM | HOP-62 < 0.0255 µM | HCT-116 < 0.0144 µM | SK-MEL-28 0.00771 µM | IGROV-1 0.0489 µM | RPMI-8226 0.0401 µM

N#Cc1c(-c2ccc(Cl)cc2)c(-c2ccc(Cl)cc2)nn(CCOC(=O)CCC(=O)O)c1=O
active: CCRF-CEM 0.48 µM | SF-295 0.522 µM | DMS-114 0.931 µM | RXF 393 0.327 µM | K562 0.344 µM | COLO 205 0.582 µM | UO-31 1.11 µM | MOLT-4 0.566 µM | SF-539 0.421 µM | SN12C 0.851 µM | OVCAR-8 1.02 µM | NCI-H522 0.51 µM | HOP-62 0.64 µM | HCT-116 0.6 µM | IGROV-1 0.925 µM | HT-29 0.796 µM | RPMI-8226 0.76 µM
inactive: NCI/ADR-RES 1.32 µM | DMS-273 2.08 µM | SK-MEL-28 5.47 µM

C[C@]12CCC3[C@@H](CC[C@@H]4c5nonc5CC[C@]34C)C1C/C(=N/O)C2=O (some centres undefined)
inactive: CCRF-CEM 56.5 µM | SF-295 52.2 µM | DMS-114 > 100 µM | RXF 393 14.1 µM | K562 > 100 µM | COLO 205 > 100 µM | UO-31 5.41 µM | MOLT-4 59.7 µM | DMS-273 > 100 µM | SF-539 71 µM | SN12C > 100 µM | OVCAR-8 > 100 µM | NCI-H522 24.6 µM | HOP-62 > 100 µM | HCT-116 > 100 µM | SK-MEL-28 27.1 µM | IGROV-1 > 100 µM | HT-29 > 100 µM | RPMI-8226 9.48 µM

COC1=C(OC)C(=O)c2cc(C)c(=O)c(C)cc2C1=O
inactive: CCRF-CEM 2.45 µM | NCI/ADR-RES 17 µM | SF-295 32.6 µM | DMS-114 3.27 µM | RXF 393 15.3 µM | K562 3.19 µM | COLO 205 19.1 µM | UO-31 13.8 µM | MOLT-4 2.27 µM | DMS-273 25.4 µM | SF-539 18.2 µM | SN12C 2.81 µM | OVCAR-8 17.3 µM | NCI-H522 14.6 µM | HOP-62 21.3 µM | HCT-116 15.3 µM | SK-MEL-28 16.5 µM | IGROV-1 18.6 µM | HT-29 22.1 µM | RPMI-8226 5.69 µM

CC1OC(=O)C(C(C)C)NC(=O)C(C(C)C)OC(=O)C(C(C)C)NC(=O)C(C)OC(=O)C(C(C)C)NC(=O)C(C(C)C)OC(=O)C(C(C)C)NC(=O)C(C)OC(=O)C(C(C)C)NC(=O)C(C(C)C)OC(=O)C(C(C)C)NC1=O (centres undefined)
active: CCRF-CEM 0.0032 µM | NCI/ADR-RES 0.00728 µM | DMS-114 0.0025 µM | RXF 393 0.00324 µM | K562 0.00299 µM | COLO 205 0.0025 µM | UO-31 0.00281 µM | MOLT-4 0.0025 µM | DMS-273 0.0025 µM | SF-539 0.00333 µM | SN12C 0.00273 µM | OVCAR-8 0.0025 µM | HOP-62 0.0025 µM | SK-MEL-28 0.0025 µM | IGROV-1 0.00275 µM | HT-29 0.0025 µM | RPMI-8226 0.0025 µM

O=C1c2ccccc2C(=O)c2c(O)ccc(O)c21 [QUINIZARIN]
inactive: CCRF-CEM > 100 µM | SF-295 > 100 µM | DMS-114 > 100 µM | RXF 393 > 100 µM | K562 > 100 µM | COLO 205 > 100 µM | UO-31 59 µM | MOLT-4 52 µM | DMS-273 > 100 µM | SF-539 > 100 µM | SN12C > 100 µM | OVCAR-8 > 100 µM | NCI-H522 > 100 µM | HOP-62 > 100 µM | HCT-116 > 100 µM | SK-MEL-28 > 100 µM | IGROV-1 > 100 µM | HT-29 45.3 µM | RPMI-8226 91 µM
